Results published in US20230278972A1, “SUBSTITUTED HALOALKYL SULFONANILIDE HERBICIDES” (FMC Corporation, priority 2020, published 2023).

Tests used:
Type in all cases: in vivo
[1] = tested on: horseweed (Erigeron canadensis); assay: Test A1 postemergence, horseweed; conditions: Postemergence
Method in brief: (§1)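 Herbicidal response was scored on plants treated either preemergence, by directed spray onto soil of a loam–sand blend after sowing, or postemergence on potted plants at the one- to two-leaf stage, 2–10 cm high. Test chemicals were carried in a non-phytotoxic solvent mix with surfactant.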

[2] = tested on: Pigweed, Palmer (palmer amaranth, palmer pigweed, Amaranthus palmeri); assay: Test A1 postemergence, Pigweed, Palmer; conditions: Postemergence
Method in brief: (§2)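 Pre: seeds in loam/sand blend, directed soil spray. Post: potted plants, same soil, 2–10 cm, 1–2 leaf stage. Chemicals in non-phytotoxic solvent + surfactant for both.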

[3] = tested on: galium (catchweed bedstraw, Galium aparine); assay: Test A1 postemergence, galium; conditions: Postemergence
Method in brief: as §1

[4] = tested on: wheat (Triticum aestivum); assay: Test A1 preemergence, wheat
Method in brief: (§3)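 Both timings started from seed in a loam-sand blend. Preemergence pots got a directed soil application immediately; postemergence pots were sprayed when seedlings had one or two leaves and stood 2–10 cm. Each compound was prepared in a non-phytotoxic solvent plus surfactant.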

[5] = tested on: Ryegrass, Italian (Italian ryegrass, Lolium multiflorum); assay: Test A1 preemergence, Ryegrass, Italian
Method in brief: as §3

[6] = tested on: Oat, Wild (wild oat, Avena fatua); assay: Test A1 preemergence, Oat, Wild
Method in brief: as §3

[7] = tested on: ragweed (common ragweed, Ambrosia artemisiifolia); assay: Test A1 preemergence, ragweed
Method in brief: as §3

[8] = tested on: ducksalad (Heteranthera limosa); assay: Test B1 flooded paddy test, ducksalad; conditions: 250 g ai/ha, Flood, applied to paddy water, 2-leaf stage, visually evaluated after 10 to 14 days
From the text: (§4) A dash (-) response means no test result.

[9] = tested on: blackgrass (Alopecurus myosuroides); assay: Test A1 preemergence, blackgrass
From the text: Seeds of plant species selected from, blackgrass (Alopecurus myosuroides), corn (Zea mays), Foxtail, Giant (giant foxtail, Setaria faberi), goosegrass (Eleusine indica), kochia (Bassia scoparia), Oat, Wild (wild oat, Avena fatua), Pigweed, Palmer (palmer amaranth, palmer pigweed, Amaranthus palmeri), ragweed (common ragweed, Ambrosia artemisiifolia), Ryegrass, Italian (Italian ryegrass, Lolium multiflorum), soybean (Glycine max), and wheat (Triticum aestivum) were planted into a blend of loam soil and sand and treated preemergence with a directed soil spray using test chemicals formulated in a non-phytotoxic solvent mixture which included a surfactant. At the same time, plants selected from these crop and weed species and also galium (catchweed bedstraw, Galium aparine) and horseweed (Erigeron canadensis) were planted in pots containing the same blend of loam soil and sand and treated with postemergence applications of test chemicals formulated in the same manner. Plants ranged in height from 2 to 10 cm and were in the one- to two-leaf stage for the postemergence treatment. […] A dash (-) response means no test result.

kochia (Bassia scoparia) [10] = assay: Test A1 preemergence, kochia
Method in brief: as §3

soybean (Glycine max) [11] = assay: Test A1 postemergence, soybean; conditions: Postemergence
Method in brief: as §1

soybean (Glycine max) [12] = assay: Test A1 preemergence, soybean
Method in brief: as §3

[13] = tested on: blackgrass (Alopecurus myosuroides); assay: Test A1 postemergence, blackgrass; conditions: Postemergence, 0 to 100 scale (0 no effect, 100 complete control)
Method in brief: as §1

[14] = tested on: goosegrass (Eleusine indica); assay: Test A1 postemergence, goosegrass; conditions: Postemergence
Method in brief: as §1

[15] = tested on: Foxtail, Giant (giant foxtail, Setaria faberi); assay: Test A1 postemergence, Foxtail, Giant; conditions: Postemergence
Method in brief: as §1

rice (Oryza sativa) = assay: Test B1 flooded paddy test, rice; conditions: 250 g ai/ha, Flood, applied to paddy water, 2-leaf stage, visually evaluated after 10 to 14 days
From the text: as §4

[16] = tested on: goosegrass (Eleusine indica); assay: Test A1 preemergence, goosegrass
Method in brief: as §3

kochia (Bassia scoparia) [17] = assay: Test A1 postemergence, kochia; conditions: Postemergence
Method in brief: as §1

[18] = tested on: Foxtail, Giant (giant foxtail, Setaria faberi); assay: Test A1 preemergence, Foxtail, Giant
Method in brief: as §3

[19] = tested on: wheat (Triticum aestivum); assay: Test A1 postemergence, wheat; conditions: Postemergence
Method in brief: as §1

corn (Zea mays) [20] = assay: Test A1 preemergence, corn
Method in brief: as §2

corn (Zea mays) [21] = assay: Test A1 postemergence, corn; conditions: Postemergence
Method in brief: as §3

[22] = tested on: barnyardgrass (Echinochloa crus-galli); assay: Test B1 flooded paddy test, barnyardgrass; conditions: 250 g ai/ha, Flood, applied to paddy water, 2-leaf stage, visually evaluated after 10 to 14 days
From the text: as §4

[23] = tested on: ragweed (common ragweed, Ambrosia artemisiifolia); assay: Test A1 postemergence, ragweed; conditions: Postemergence
Method in brief: as §2

[24] = tested on: Pigweed, Palmer (palmer amaranth, palmer pigweed, Amaranthus palmeri); assay: Test A1 preemergence, Pigweed, Palmer
Method in brief: as §3

[25] = tested on: Ryegrass, Italian (Italian ryegrass, Lolium multiflorum); assay: Test A1 postemergence, Ryegrass, Italian; conditions: Postemergence
Method in brief: as §1

[26] = tested on: Oat, Wild (wild oat, Avena fatua); assay: Test A1 postemergence, Oat, Wild; conditions: Postemergence
Method in brief: as §2

[27] = 31 g ai/ha, 0 to 100 scale (0 no effect, 100 complete control), 10 days
[28] = 31 g ai/ha, 0 to 100 scale (0 no effect, 100 complete control)
[29] = 125 g ai/ha, 0 to 100 scale, 0 no effect, 100 complete control

Cc1cc(C)c(C2=NOC3CCCCCC23)cc1NS(=O)(=O)C(F)(F)F (stereo not drawn) [Compound 292]
Plant response rating, Horseweed [1, 27]: 0 | Plant response rating, Horseweed ([1]; 125 g ai/ha, 0 to 100 scale): 30 | Plant response rating, Pigweed, Palmer [2, 27]: 0 | Plant response rating, Pigweed, Palmer ([2]; 125 g ai/ha, 0 to 100 scale): 30 | Plant response rating, Galium [3, 27]: 80 | Plant response rating, Galium ([3]; 125 g ai/ha, 0 to 100 scale): 80 | Plant response rating, Wheat [4, 28]: 20 | Plant response rating, Wheat [4, 29]: 90 | Plant response rating, Ryegrass, Italian [5, 28]: 60 | Plant response rating, Ryegrass, Italian [5, 29]: 100 | Plant response rating, Oat, Wild [6, 28]: 0 | Plant response rating, Oat, Wild [6, 29]: 50 | Plant response rating, Ragweed [7, 28]: 10 | Plant response rating, Ragweed [7, 29]: 80 | Plant response rating, Ducksalad (0 to 100 scale, 0 is no effect, 100 is complete control) [8]: 95 | Plant response rating, Blackgrass [9, 28]: 0 | Plant response rating, Blackgrass [9, 29]: 30 | Plant response rating, Kochia (kochia (Bassia scoparia) [10]; [28]): 30 | Plant response rating, Kochia (kochia (Bassia scoparia) [10]; [29]): 80 | Plant response rating, Soybean (soybean (Glycine max) [11]; [27]): 20 | Plant response rating, Soybean (soybean (Glycine max) [11]; 125 g ai/ha, 0 to 100 scale): 80 | Plant response rating, Soybean (soybean (Glycine max) [12]; [28]): 0 | Plant response rating, Soybean (soybean (Glycine max) [12]; [29]): 40 | Plant response rating, Blackgrass ([13]; 31 g ai/ha, 10 days): 0 | Plant response rating, Blackgrass ([13]; 125 g ai/ha): 0 | Plant response rating, Goosegrass [14, 27]: 0 | Plant response rating, Goosegrass ([14]; 125 g ai/ha, 0 to 100 scale): 80 | Plant response rating, Foxtail, Giant [15, 27]: 0 | Plant response rating, Foxtail, Giant ([15]; 125 g ai/ha, 0 to 100 scale): 30 | Plant response rating, Rice (0 to 100 scale, 0 is no effect, 100 is complete control) (rice (Oryza sativa)): 0 | Plant response rating, Goosegrass [16, 28]: 80 | Plant response rating, Goosegrass [16, 29]: 100 | Plant response rating, Kochia (kochia (Bassia scoparia) [17]; [27]): 30 | Plant response rating, Kochia (kochia (Bassia scoparia) [17]; 125 g ai/ha, 0 to 100 scale): 50 | Plant response rating, Foxtail, Giant [18, 28]: 50 | Plant response rating, Foxtail, Giant [18, 29]: 100 | Plant response rating, Wheat [19, 27]: 0 | Plant response rating, Wheat ([19]; 125 g ai/ha, 0 to 100 scale): 70 | Plant response rating, Corn (corn (Zea mays) [20]; [28]): 0 | Plant response rating, Corn (corn (Zea mays) [20]; [29]): 40 | Plant response rating, Corn (corn (Zea mays) [21]; [27]): 0 | Plant response rating, Corn (corn (Zea mays) [21]; 125 g ai/ha, 0 to 100 scale): 0 | Plant response rating, Barnyardgrass (0 to 100 scale, 0 is no effect, 100 is complete control) [22]: 0 | Plant response rating, Ragweed [23, 27]: 20 | Plant response rating, Ragweed ([23]; 125 g ai/ha, 0 to 100 scale): 40 | Plant response rating, Pigweed, Palmer [24, 28]: 60 | Plant response rating, Pigweed, Palmer [24, 29]: 60 | Plant response rating, Ryegrass, Italian [25, 27]: 0 | Plant response rating, Ryegrass, Italian ([25]; 125 g ai/ha, 0 to 100 scale): 30 | Plant response rating, Oat, Wild [26, 27]: 10 | Plant response rating, Oat, Wild ([26]; 125 g ai/ha, 0 to 100 scale): 30

Cc1cc(C)c(N(S(=O)(=O)C(F)(F)F)S(=O)(=O)C(F)(F)F)cc1C1=NOC2COCC12 (stereo not drawn) [Compound 296]
Plant response rating, Horseweed [1, 27]: 70 | Plant response rating, Horseweed ([1]; 125 g ai/ha, 0 to 100 scale): 80 | Plant response rating, Pigweed, Palmer [2, 27]: 0 | Plant response rating, Pigweed, Palmer ([2]; 125 g ai/ha, 0 to 100 scale): 20 | Plant response rating, Galium [3, 27]: 50 | Plant response rating, Galium ([3]; 125 g ai/ha, 0 to 100 scale): 80 | Plant response rating, Wheat [4, 28]: 10 | Plant response rating, Wheat [4, 29]: 90 | Plant response rating, Ryegrass, Italian [5, 28]: 0 | Plant response rating, Ryegrass, Italian [5, 29]: 90 | Plant response rating, Oat, Wild [6, 28]: 0 | Plant response rating, Oat, Wild [6, 29]: 10 | Plant response rating, Ragweed [7, 28]: 50 | Plant response rating, Ragweed [7, 29]: 90 | Plant response rating, Ducksalad (0 to 100 scale, 0 is no effect, 100 is complete control) [8]: 20 | Plant response rating, Blackgrass [9, 28]: 10 | Plant response rating, Blackgrass [9, 29]: 60 | Plant response rating, Kochia (kochia (Bassia scoparia) [10]; [28]): 60 | Plant response rating, Kochia (kochia (Bassia scoparia) [10]; [29]): 90 | Plant response rating, Soybean (soybean (Glycine max) [11]; [27]): 30 | Plant response rating, Soybean (soybean (Glycine max) [11]; 125 g ai/ha, 0 to 100 scale): 40 | Plant response rating, Soybean (soybean (Glycine max) [12]; [28]): 20 | Plant response rating, Soybean (soybean (Glycine max) [12]; [29]): 30 | Plant response rating, Blackgrass ([13]; 31 g ai/ha, 10 days): 0 | Plant response rating, Blackgrass ([13]; 125 g ai/ha): 0 | Plant response rating, Goosegrass [14, 27]: 20 | Plant response rating, Goosegrass ([14]; 125 g ai/ha, 0 to 100 scale): 60 | Plant response rating, Foxtail, Giant [15, 27]: 0 | Plant response rating, Foxtail, Giant ([15]; 125 g ai/ha, 0 to 100 scale): 10 | Plant response rating, Rice (0 to 100 scale, 0 is no effect, 100 is complete control) (rice (Oryza sativa)): 0 | Plant response rating, Goosegrass [16, 28]: 40 | Plant response rating, Goosegrass [16, 29]: 90 | Plant response rating, Kochia (kochia (Bassia scoparia) [17]; [27]): 20 | Plant response rating, Kochia (kochia (Bassia scoparia) [17]; 125 g ai/ha, 0 to 100 scale): 40 | Plant response rating, Foxtail, Giant [18, 28]: 30 | Plant response rating, Foxtail, Giant [18, 29]: 100 | Plant response rating, Wheat [19, 27]: 0 | Plant response rating, Wheat ([19]; 125 g ai/ha, 0 to 100 scale): 30 | Plant response rating, Corn (corn (Zea mays) [20]; [28]): 0 | Plant response rating, Corn (corn (Zea mays) [20]; [29]): 70 | Plant response rating, Corn (corn (Zea mays) [21]; [27]): 0 | Plant response rating, Corn (corn (Zea mays) [21]; 125 g ai/ha, 0 to 100 scale): 0 | Plant response rating, Barnyardgrass (0 to 100 scale, 0 is no effect, 100 is complete control) [22]: 30 | Plant response rating, Ragweed [23, 27]: 20 | Plant response rating, Ragweed ([23]; 125 g ai/ha, 0 to 100 scale): 30 | Plant response rating, Pigweed, Palmer [24, 28]: 10 | Plant response rating, Pigweed, Palmer [24, 29]: 80 | Plant response rating, Ryegrass, Italian [25, 27]: 0 | Plant response rating, Ryegrass, Italian ([25]; 125 g ai/ha, 0 to 100 scale): 40 | Plant response rating, Oat, Wild [26, 27]: 0 | Plant response rating, Oat, Wild ([26]; 125 g ai/ha, 0 to 100 scale): 10
